Data from the NIST ThermoML archive (doi:10.1016/j.jct.2008.03.013).
Where “and” joins values, the source holds several entries; their conditions need not be identical. Equal values may be shown once.

Legend:
[1] = refractive index (Na D-line) (dimensionless); xn = mol fraction of the nth substance listed; details: 298.15 K, 100 kPa, Liquid, Standard Abbe refractometry
[2] = xn = mol fraction of the nth substance listed; details: 100 kPa, Liquid
[3] = 100 kPa, Liquid
[4] = refractive index (Na D-line) (dimensionless); details: 298.15 K; 101.33 kPa; Liquid; Standard Abbe refractometry

CCCCn1cc[n+](C)c1.COS(=O)(=O)[O-] [1-butyl-3-methylimidazolium methyl sulfate] + CCO
[1]
Details | refractive index
x2 = 0 | 1.47792
x2 = 0.0651 | 1.4759
x2 = 0.0922 | 1.475
x2 = 0.2011 | 1.4711
x2 = 0.3091 | 1.46633
x2 = 0.402 | 1.46114
x2 = 0.491 | 1.45512
x2 = 0.5788 | 1.4478
x2 = 0.7142 | 1.43243
x2 = 0.807 | 1.41714
x2 = 0.895 | 1.39734
x2 = 0.9445 | 1.38212

[2]
Details | mass density, 298.15 K [kg/m3] | mass density, 313.15 K [kg/m3] | mass density, 328.15 K [kg/m3] | viscosity, 298.15 K [mPa·s] | viscosity, 313.15 K [mPa·s] | viscosity, 328.15 K [mPa·s]
x2 = 0 | 1213.43 | 1203.48 | 1193.59 | 182.3 | 84.7 | 45.35
x2 = 0.0651 | 1205.77 | 1195.71 | 1185.73 | 156.7 | 74.9 | 40.76
x2 = 0.0922 | 1202.49 | 1192.4 | 1182.4 | 131.9 | 64.1 | 35.9
x2 = 0.2011 | 1187.41 | 1177.24 | 1167.12 | 88.6 | 46.28 | 27.16
x2 = 0.3091 | 1169.23 | 1158.88 | 1148.61 | 56.32 | 31.64 | 19.89
x2 = 0.402 | 1150.09 | 1139.56 | 1129.14 | 37.85 | 22.35 | 14.41
x2 = 0.491 | 1127.58 | 1117.04 | 1106.55 | 25.04 | 15.62 | 10.53
x2 = 0.5788 | 1100.78 | 1089.92 | 1079.14 | 16.22 | 10.58 | 7.263
x2 = 0.7142 | 1043.7 | 1032.43 | 1021.2 | 7.427 | 5.271 | 4.019
x2 = 0.807 | 989.09 | 977.5 | 965.92 | 4.349 | 3.197 | 2.503
x2 = 0.895 | 917.29 | 905.22 | 893.02 | 2.465 | 1.863 | 1.432
x2 = 0.9445 | 863.52 | 851.11 | 838.48 | 1.733 | 1.319 | 1.033

CCCCn1cc[n+](C)c1.COS(=O)(=O)[O-] [1-butyl-3-methylimidazolium methyl sulfate]
[3]
Details | mass density [kg/m3] | viscosity
298.15 K | 1213.43 | 182.3 mPa·s
313.15 K | 1203.48 | 84.8 mPa·s and 84.7 mPa·s
328.15 K | 1193.59 | 45.35 mPa·s

Details | refractive index
[4] | 1.47792

CCCCn1cc[n+](C)c1.COS(=O)(=O)[O-] [1-butyl-3-methylimidazolium methyl sulfate] + O
[1]
Details | refractive index
x2 = 0 | 1.47792
x2 = 0.0325 | 1.47746
x2 = 0.1703 | 1.47584
x2 = 0.2989 | 1.47341
x2 = 0.4104 | 1.47032
x2 = 0.4774 | 1.46814
x2 = 0.5886 | 1.463
x2 = 0.6859 | 1.45603
x2 = 0.7856 | 1.44395
x2 = 0.8899 | 1.41842
x2 = 0.9466 | 1.38937

[2]
Details | mass density, 298.15 K [kg/m3] | mass density, 313.15 K [kg/m3] | mass density, 328.15 K [kg/m3] | viscosity, 298.15 K [mPa·s] | viscosity, 313.15 K [mPa·s] | viscosity, 328.15 K [mPa·s]
x2 = 0 | 1213.43 | 1203.48 | 1193.59 | 182.3 | 84.8 | 45.35
x2 = 0.0325 | 1212.91 | 1202.96 | 1193.03 | 177 | 82.8 | 44.8
x2 = 0.1703 | 1211.05 | 1201.02 | 1190.99 | 137 | 68.9 | 41.09
x2 = 0.2989 | 1208.33 | 1198.3 | 1188.25 | 95.4 | 51.5 | 33.85
x2 = 0.4104 | 1204.62 | 1194.57 | 1184.54 | 65.5 | 35.77 | 23.52
x2 = 0.4774 | 1201.72 | 1191.55 | 1181.33 | 50.2 | 27.55 | 18.25
x2 = 0.5886 | 1194.68 | 1184.43 | 1174.25 | 31.93 | 18.4 | 11.98
x2 = 0.6859 | 1185.23 | 1174.8 | 1164.26 | 20.28 | 12.03 | 7.862
x2 = 0.7856 | 1168.21 | 1157.61 | 1146.83 | 11.42 | 7.027 | 4.738
x2 = 0.8899 | 1130.52 | 1120.17 | 1109.5 | 5.071 | 3.296 | 2.306
x2 = 0.9466 | 1085.81 | 1076.83 | 1067.17 | 2.597 | 1.763 | 1.281

CCO [ethanol]
[3]
Details | mass density [kg/m3] | viscosity [mPa·s]
298.15 K | 785.46 | 1.082
313.15 K | 772 | 0.827
328.15 K | 758.55 | 0.641

Details | refractive index
[4] | 1.36023

CCO [ethanol] + CCCCn1cc[n+](C)c1.COS(=O)(=O)[O-]
Details | refractive index
[1], x1 = 1 | 1.36023

[2], x1 = 1
Details | mass density [kg/m3] | viscosity [mPa·s]
298.15 K | 785.46 | 1.082
313.15 K | 772 | 0.827
328.15 K | 758.55 | 0.641
